Source: US9492444B2, “Extruded extended release abuse deterrent pill” (Pharmaceutical Manufacturing Research Services, Inc., priority 2013, dated 2016)

How the values were obtained:
[1] = cited from earlier work
[2] = General solubility of exemplary components; format: physicochemical; conditions: 200 proof ethanol, filtered through 0.22 micrometer PTFE filter
From the text: The following table lists the relative solubility of exemplary components of a formulation. A number of different dyes are listed along with their solubility information taken from the various literature sources and tested experimentally (200 proof ethanol and filtered through a 0.22 micrometer PTFE filter).

O=C([O-])C1=NN(c2ccc(S(=O)(=O)[O-])cc2)C(=O)C1N=Nc1ccc(S(=O)(=O)[O-])cc1.[Na+].[Na+].[Na+] (stereo not drawn) [Yellow #5]
Yes: Alcohol Solubility (Literature) [1] | Water Solubility [1] | Alcohol Solubility (tested) [2]

COc1cc(S(=O)(=O)[O-])c(C)cc1N=Nc1c(O)ccc2cc(S(=O)(=O)[O-])ccc12.[Na+].[Na+] [Red #40]
Yes: Alcohol Solubility (Literature) [1] | Water Solubility [1] | Alcohol Solubility (tested) [2]

CCN(Cc1cccc(S(=O)(=O)[O-])c1)c1ccc(C(=C2C=CC(=[N+](CC)Cc3cccc(S(=O)(=O)[O-])c3)C=C2)c2ccccc2S(=O)(=O)[O-])cc1.[Na+].[Na+] [Blue #1]
Yes: Alcohol Solubility (Literature) [1] | Water Solubility [1] | Alcohol Solubility (tested) [2]

O=C1/C(=C2\Nc3ccc(S(=O)(=O)[O-])cc3C2=O)Nc2ccc(S(=O)(=O)[O-])cc21.[Na+].[Na+] [Blue #2]
Yes: Alcohol Solubility (Literature) [1] | Water Solubility [1] | Alcohol Solubility (tested) [2]
